Test results published in US20050137251A1, “Dexanabinol and dexanabinol analogs regulate inflammation related genes” (priority 2002, published 2005).

Tests used:
[1] = tested on: PGE2 secretion; assay: Inhibition of PGE2 secretion in LPS activated mouse macrophages (RAW 264.7); format: cell-based; conditions: RAW264.7, LPS activated RAW 264.7 cells
Method: The assay reproduces in vitro the true enzymatic activity, the test compounds, up to 10 μM, were preincubated for 5 minutes with purified COX-2, then the natural substrate AA was added and the reaction was allowed to proceed for 2 minutes. HCl was used to stop the enzyme catalysis and saturated stannous chloride was added to stabilize the PGH2 product into PGF2α.
RAW 264.7 macrophages, a mouse cell line (ATCC # TIB 71), were grown in Dulbecco's modified Eagle's medium (DMEM) with 4 mM L-glutamine adjusted to contain 1.5 g/L sodium bicarbonate, 4.5 g/L glucose, and 10% heat inactivated fetal bovine serum. Cells were grown in tissue culture flasks and seeded at appropriate density into 24 wells tissue culture plates. 0.5×10^6 Raw cells in one milliliter were stimulated with 2 μg/ml Lipopolysaccharide E. coli 055:B5 (DIFCO Laboratories). The mouse macrophages were pre-treated for one hour with controls or 10 μM of dexanabinol and its analogs, unless indicated otherwise, and later on activated with LPS.

[2] = tested on: LoVo colorectal cancer cells; assay: Tumor growth of in vivo implanted LoVo colorectal cancer cells; design: species or system mice; conditions: end of 8 weeks treatment
Method: Once we have shown that dexanabinol and its analogs were inhibitors of tumor cell proliferation in vitro, we wished to test if our compounds were as efficient in vivo. For this purpose the tumor cells LoVo (originating from a colorectal tumor; ATCC # CCL-229) were grown in DMEM containing 4.5 g/L glucose, 2 mM Glutamine, 1% Pen/Strep and 10% heat inactivated fetal calf serum. The cells were harvested using Trypsin-EDTA, the detached cells were rinsed in PBS, and counted. Predetermined amounts (1×10^6 cells in constant volume of […]) were injected s.c. above the right femoral joint in nude CD-1 male mice (average weight 20-25 gr, Harlan, Israel). Each treatment group was composed of at least 7 animals. Each animal was clinically monitored daily. The growth of the tumor was also monitored during the daily visits but actual measurements were recorded once a week. When tumors reach the appropriate size, animals are treated with either vehicle, 5 ml/kg/day, or with our test compounds, in the range of 2.5 to 10 mg/kg/day.
Thirty-six out of the 40 implanted mice developed a visible tumor within 5 to 6 weeks from tumor implantation. All animals were treated first on the 36th-42nd day of tumor implantation and the treatment lasted 8 weeks. One animal died in each treatment group between the 5th and the 7th week of treatment. The results are expressed as percent of tumor growth at the various days of the treatment as compared to baseline day 1. The results are depicted in FIG. 7 where we can observe that the efficacy of dexanabinol is inversely proportional to its dose in the range tested. 2.5 mg/kg (▪) seems more efficient than 5 mg/kg (▴), itself better than 10 mg/kg (x), which has very little effect, if at all, as compared to vehicle (--♦--). By the end of the treatment, 2.5 mg/kg dexanabinol reduced the tumor growth by 89%, 5 mg/kg by 61% and 10 mg/kg by 21%.

[3] = tested on: carrageenan induced paw edema; assay: Carrageenan induced paw edema; format: in vivo, mice; conditions: doses ranging from 0.2 to 0.5 mg/kg i.p., 3 hours after carrageenan

SMILES: CCCCCCC(C)(C)c1cc(O)c2c(c1)OC(C)(C)[C@H]1CC=C(CO)C[C@H]21 [dexanabinol, 1,1-dimethylheptyl-(3S,4S)-7-hydroxy-Δ^6-tetrahydrocannabinol]
- IC50 [1]: 10 µM
- Reduction of tumor growth ([2]; 2.5 mg/kg/day): 89%
- Reduction of tumor growth ([2]; 5 mg/kg/day): 61%
- Reduction of tumor growth ([2]; 10 mg/kg/day): 21%
- Reduction in paw thickness [3]: about 29%
